Measurements as given in ChEMBL document CHEMBL5291721, “A preclinical secondary pharmacology resource illuminates target-adverse drug reaction associations of marketed drugs” (Nat Commun, 2023).

Key:
[1] = biological target: cGMP-inhibited 3',5'-cyclic phosphodiesterase 3A (Homo sapiens, UniProt Q14432); format: functional
Acetylcholinesterase = Acetylcholinesterase (Homo sapiens, UniProt P22303); format: functional
[2] = biological target: T1, Neuropeptide Y receptor type 1 (Homo sapiens, UniProt P25929)
T1 sequence (P25929 whole entry): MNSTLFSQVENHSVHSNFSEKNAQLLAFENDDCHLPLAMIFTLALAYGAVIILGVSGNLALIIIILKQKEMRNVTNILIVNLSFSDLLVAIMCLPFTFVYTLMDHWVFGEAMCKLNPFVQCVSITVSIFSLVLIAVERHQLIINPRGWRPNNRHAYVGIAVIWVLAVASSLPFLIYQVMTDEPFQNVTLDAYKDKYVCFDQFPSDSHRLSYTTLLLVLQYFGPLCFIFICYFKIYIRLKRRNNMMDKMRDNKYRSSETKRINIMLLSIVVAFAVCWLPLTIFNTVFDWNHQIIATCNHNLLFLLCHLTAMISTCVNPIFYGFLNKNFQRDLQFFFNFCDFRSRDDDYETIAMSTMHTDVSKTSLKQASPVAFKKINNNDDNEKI

Cannabinoid receptor 1 = Cannabinoid receptor 1 (Homo sapiens, UniProt P21554); format: functional, cell-based
Chain of Cannabinoid receptor 1 (P21554 whole entry): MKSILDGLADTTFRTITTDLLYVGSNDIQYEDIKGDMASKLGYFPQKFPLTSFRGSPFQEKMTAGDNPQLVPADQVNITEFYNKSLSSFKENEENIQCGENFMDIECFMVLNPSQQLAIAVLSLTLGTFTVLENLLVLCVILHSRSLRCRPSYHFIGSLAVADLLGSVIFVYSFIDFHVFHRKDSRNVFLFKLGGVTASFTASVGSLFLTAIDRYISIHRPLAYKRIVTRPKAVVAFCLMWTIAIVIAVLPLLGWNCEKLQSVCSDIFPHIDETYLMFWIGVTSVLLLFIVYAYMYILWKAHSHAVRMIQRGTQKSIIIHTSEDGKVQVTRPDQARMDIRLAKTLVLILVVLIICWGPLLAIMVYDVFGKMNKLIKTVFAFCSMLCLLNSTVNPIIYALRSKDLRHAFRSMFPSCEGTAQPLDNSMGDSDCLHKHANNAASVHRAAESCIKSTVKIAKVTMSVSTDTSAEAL

[3] = biological target: Gamma-aminobutyric acid receptor subunit alpha-1 (Rattus norvegicus, UniProt P62813)
Chain of Gamma-aminobutyric acid receptor subunit alpha-1 (P62813 whole entry): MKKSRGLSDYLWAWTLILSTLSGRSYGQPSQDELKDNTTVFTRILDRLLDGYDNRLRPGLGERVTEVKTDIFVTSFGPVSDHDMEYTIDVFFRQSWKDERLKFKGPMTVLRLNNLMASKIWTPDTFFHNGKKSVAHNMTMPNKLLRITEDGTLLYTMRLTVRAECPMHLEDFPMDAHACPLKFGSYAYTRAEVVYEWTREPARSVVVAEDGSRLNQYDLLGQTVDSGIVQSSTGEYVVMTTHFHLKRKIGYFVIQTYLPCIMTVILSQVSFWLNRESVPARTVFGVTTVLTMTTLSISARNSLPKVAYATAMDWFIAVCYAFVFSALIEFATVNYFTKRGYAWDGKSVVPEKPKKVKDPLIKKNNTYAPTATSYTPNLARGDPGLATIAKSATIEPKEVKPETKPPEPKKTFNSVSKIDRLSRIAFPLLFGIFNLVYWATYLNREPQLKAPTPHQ

[4] = biological target: T2, Muscarinic acetylcholine receptor M2 (Homo sapiens, UniProt P08172); format: functional, cell-based
T2 sequence (P08172 whole entry): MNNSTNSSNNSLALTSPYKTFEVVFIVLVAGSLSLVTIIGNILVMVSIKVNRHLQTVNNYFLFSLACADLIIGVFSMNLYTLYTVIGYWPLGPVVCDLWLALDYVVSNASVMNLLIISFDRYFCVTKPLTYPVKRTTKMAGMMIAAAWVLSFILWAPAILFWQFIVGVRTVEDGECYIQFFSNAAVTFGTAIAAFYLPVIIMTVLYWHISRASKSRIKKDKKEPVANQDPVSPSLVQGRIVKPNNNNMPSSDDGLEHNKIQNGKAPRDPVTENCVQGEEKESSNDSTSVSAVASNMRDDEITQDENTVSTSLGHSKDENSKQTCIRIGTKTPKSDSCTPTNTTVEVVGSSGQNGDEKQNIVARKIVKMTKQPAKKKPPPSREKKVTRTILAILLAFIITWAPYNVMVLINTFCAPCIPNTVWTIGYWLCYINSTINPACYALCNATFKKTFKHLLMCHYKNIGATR

Progesterone receptor = biological target: T3, Progesterone receptor (Homo sapiens, UniProt P06401); format: functional
T3 sequence (P06401 whole entry): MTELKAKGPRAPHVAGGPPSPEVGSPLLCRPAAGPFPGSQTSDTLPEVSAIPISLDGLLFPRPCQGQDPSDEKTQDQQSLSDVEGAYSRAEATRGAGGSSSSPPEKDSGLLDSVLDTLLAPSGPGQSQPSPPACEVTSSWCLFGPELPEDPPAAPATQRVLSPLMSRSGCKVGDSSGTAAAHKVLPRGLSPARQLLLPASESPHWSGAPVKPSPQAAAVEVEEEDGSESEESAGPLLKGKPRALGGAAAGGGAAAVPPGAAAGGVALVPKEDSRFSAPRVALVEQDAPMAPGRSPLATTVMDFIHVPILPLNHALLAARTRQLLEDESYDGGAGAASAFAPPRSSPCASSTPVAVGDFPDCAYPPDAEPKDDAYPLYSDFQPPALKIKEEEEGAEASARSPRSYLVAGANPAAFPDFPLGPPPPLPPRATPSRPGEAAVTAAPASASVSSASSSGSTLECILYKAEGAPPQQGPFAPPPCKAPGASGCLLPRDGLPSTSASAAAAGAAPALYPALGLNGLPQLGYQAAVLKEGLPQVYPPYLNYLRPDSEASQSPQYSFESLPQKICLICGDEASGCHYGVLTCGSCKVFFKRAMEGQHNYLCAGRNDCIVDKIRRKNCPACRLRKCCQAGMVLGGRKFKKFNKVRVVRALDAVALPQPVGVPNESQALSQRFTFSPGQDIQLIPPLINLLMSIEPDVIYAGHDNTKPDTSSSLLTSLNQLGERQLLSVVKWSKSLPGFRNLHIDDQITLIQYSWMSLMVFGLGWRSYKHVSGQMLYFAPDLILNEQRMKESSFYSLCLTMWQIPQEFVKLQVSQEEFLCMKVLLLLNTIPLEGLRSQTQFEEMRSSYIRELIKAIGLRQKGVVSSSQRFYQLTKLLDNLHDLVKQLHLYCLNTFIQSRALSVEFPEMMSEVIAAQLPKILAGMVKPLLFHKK

[5] = biological target: T4, Alpha-1A adrenergic receptor (Homo sapiens, UniProt P35348); format: functional, cell-based
T4 sequence (P35348 whole entry): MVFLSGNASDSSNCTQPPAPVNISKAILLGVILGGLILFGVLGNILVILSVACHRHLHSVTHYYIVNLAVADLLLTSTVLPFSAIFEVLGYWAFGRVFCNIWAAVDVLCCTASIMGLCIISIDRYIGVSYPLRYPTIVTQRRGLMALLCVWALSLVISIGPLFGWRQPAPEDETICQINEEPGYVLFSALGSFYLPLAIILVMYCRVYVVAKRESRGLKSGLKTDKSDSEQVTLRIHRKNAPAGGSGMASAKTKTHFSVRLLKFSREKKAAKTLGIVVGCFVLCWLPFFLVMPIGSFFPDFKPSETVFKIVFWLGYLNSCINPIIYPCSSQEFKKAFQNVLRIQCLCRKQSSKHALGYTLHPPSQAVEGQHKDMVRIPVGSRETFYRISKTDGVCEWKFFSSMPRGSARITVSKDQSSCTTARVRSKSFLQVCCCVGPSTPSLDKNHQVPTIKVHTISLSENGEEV
Further: assay procedure not described here.

Chain of Acetylcholinesterase (P22303 whole entry): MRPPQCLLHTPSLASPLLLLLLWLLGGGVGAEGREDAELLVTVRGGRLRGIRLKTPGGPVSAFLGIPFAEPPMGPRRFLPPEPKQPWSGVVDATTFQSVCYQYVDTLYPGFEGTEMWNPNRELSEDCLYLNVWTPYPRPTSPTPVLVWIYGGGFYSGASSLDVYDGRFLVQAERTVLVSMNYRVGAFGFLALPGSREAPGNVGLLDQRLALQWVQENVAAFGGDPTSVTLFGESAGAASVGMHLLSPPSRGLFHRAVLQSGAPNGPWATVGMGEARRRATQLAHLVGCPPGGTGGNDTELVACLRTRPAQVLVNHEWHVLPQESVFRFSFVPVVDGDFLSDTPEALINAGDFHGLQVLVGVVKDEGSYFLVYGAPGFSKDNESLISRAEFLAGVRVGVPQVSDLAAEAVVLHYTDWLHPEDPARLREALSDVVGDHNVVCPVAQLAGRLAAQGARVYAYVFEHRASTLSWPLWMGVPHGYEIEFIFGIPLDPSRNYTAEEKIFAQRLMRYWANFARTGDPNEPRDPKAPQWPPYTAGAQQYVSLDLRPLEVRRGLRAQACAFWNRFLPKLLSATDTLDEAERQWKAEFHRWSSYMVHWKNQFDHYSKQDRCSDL
Chain of cGMP-inhibited 3',5'-cyclic phosphodiesterase 3A (Q14432 whole entry): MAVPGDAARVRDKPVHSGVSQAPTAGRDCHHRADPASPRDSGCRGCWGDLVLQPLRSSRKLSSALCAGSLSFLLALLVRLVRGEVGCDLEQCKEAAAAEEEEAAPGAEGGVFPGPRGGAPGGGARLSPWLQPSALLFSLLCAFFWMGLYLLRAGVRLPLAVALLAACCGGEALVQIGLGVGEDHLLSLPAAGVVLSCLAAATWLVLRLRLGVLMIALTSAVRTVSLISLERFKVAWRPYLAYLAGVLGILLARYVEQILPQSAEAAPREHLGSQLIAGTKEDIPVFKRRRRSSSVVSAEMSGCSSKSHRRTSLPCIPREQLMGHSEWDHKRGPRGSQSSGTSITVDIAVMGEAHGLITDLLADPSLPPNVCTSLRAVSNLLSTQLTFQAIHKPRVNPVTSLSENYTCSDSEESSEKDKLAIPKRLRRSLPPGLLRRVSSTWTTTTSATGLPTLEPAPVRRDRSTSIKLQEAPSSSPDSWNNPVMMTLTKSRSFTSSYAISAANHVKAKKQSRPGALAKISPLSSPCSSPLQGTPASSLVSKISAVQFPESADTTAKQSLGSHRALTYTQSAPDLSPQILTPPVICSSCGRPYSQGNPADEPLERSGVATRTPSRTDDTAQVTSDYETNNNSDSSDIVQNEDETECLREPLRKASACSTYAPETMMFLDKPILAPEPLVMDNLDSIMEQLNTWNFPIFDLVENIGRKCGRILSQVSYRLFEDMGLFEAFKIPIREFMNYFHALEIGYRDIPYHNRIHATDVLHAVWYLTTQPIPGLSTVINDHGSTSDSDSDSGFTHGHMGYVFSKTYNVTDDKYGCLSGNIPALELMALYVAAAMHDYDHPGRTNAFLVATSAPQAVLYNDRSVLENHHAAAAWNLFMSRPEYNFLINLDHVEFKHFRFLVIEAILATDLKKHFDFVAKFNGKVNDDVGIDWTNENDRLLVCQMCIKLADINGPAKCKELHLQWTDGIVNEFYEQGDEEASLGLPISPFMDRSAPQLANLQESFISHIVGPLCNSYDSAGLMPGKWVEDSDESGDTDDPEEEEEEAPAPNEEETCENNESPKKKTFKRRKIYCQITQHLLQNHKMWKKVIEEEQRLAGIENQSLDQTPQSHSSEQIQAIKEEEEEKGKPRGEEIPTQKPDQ

Row | Structure (SMILES) | AC50 [1] | AC50 (Acetylcholinesterase) | AC50 [2] | AC50 (Cannabinoid receptor 1) | AC50 [3] | AC50 [4] | AC50 (Progesterone receptor) | AC50 [5]
1 | COc1cccc2c1C(=O)c1c(O)c3c(c(O)c1C2=O)C[C@@](O)(C(=O)CO)C[C@@H]3O[C@H]1C[C@H](N)[C@H](O[C@@H]2CCCCO2)[C@H](C)O1 [PIRARUBICIN] | > 30 µM | > 10 µM |  |  |  |  |  | 
2 | O=c1[nH]cc(F)c(=O)[nH]1 [FLUOROURACIL] | > 30 µM | > 30 µM | > 30 µM |  |  |  |  | 
3 | CCOC(=O)Nc1ccc(NCc2ccc(F)cc2)nc1N [FLUPIRTINE] |  |  | > 30 µM | > 30 µM | > 30 µM | > 30 µM |  | 
4 | CN(C)CCc1c[nH]c2ccc(CS(=O)(=O)N3CCCC3)cc12 [ALMOTRIPTAN] |  |  | > 30 µM | > 30 µM | > 30 µM | > 30 µM | > 30 µM | 
5 | CO[C@@]1(NC(=O)C(C(=O)O)c2ccc(O)cc2)C(=O)N2C(C(=O)O)=C(CSc3nnnn3C)CO[C@@H]21 (some centres not stated) [MOXALACTAM] | > 30 µM | > 30 µM |  |  |  |  |  | 
6 | CCN(CCO)CCCC(C)Nc1ccnc2cc(Cl)ccc12 (configuration not stated) [HYDROXYCHLOROQUINE] |  |  | > 10 µM |  | > 10 µM | > 10 µM | > 10 µM | 
7 | COC(=O)CCc1ccc(OCC(O)CNC(C)C)cc1 (configuration not stated) [ESMOLOL] |  |  | > 30 µM |  | > 30 µM | > 30 µM | > 30 µM | > 30 µM
8 | C[C@@H](O)[C@H]1C(=O)N2C(C(=O)O)=C(SCCN=CN)C[C@H]12 [IMIPENEM ANHYDROUS] |  |  |  | > 300 µM |  | > 300 µM | > 300 µM | > 300 µM
9 | c1cnc2cc3c(cc2n1)[C@@H]1CNC[C@H]3C1 [VARENICLINE] |  |  |  | > 30 µM |  | > 30 µM | > 30 µM | > 30 µM
10 | O=C(O)COC(=O)Cc1ccccc1Nc1c(Cl)cccc1Cl [ACECLOFENAC] |  |  | > 30 µM | > 30 µM | > 10 µM | > 10 µM |  | > 30 µM
11 | CC(=O)SCC(Cc1ccccc1)C(=O)NCC(=O)OCc1ccccc1 (configuration not stated) [RACECADOTRIL] |  |  | > 30 µM | 17 µM | > 30 µM | > 30 µM | > 30 µM | 
12 | C#CCN(C)Cc1ccccc1 [PARGYLINE] | > 30 µM | > 30 µM |  | > 30 µM | > 30 µM | > 30 µM |  | > 30 µM
13 | CNC1(C)C2CCC(C2)C1(C)C (configuration not stated) [MECAMYLAMINE] |  |  | > 10 µM |  |  | > 10 µM | > 10 µM | 
14 | CC(C)NCC(O)COc1ccc(CC(N)=O)cc1 (configuration not stated) [ATENOLOL] |  |  | > 30 µM |  |  |  | > 30 µM | > 30 µM
15 | CO[C@@H]1[C@@H](OC(N)=O)[C@@H](O)[C@H](Oc2ccc3c(O)c(NC(=O)c4ccc(O)c(CC=C(C)C)c4)c(=O)oc3c2C)OC1(C)C [NOVOBIOCIN] |  |  |  | > 30 µM |  | > 30 µM | > 30 µM | > 30 µM
16 | NCCCCCC(=O)O [AMINOCAPROIC ACID] |  |  | > 10 µM |  | > 10 µM | > 10 µM | > 10 µM | 
17 | CC#CC(=O)N1CCC[C@H]1c1nc(-c2ccc(C(=O)Nc3ccccn3)cc2)c2c(N)nccn12 [ACALABRUTINIB] | > 30 µM | > 30 µM |  |  |  |  |  | 

Row | Structure (SMILES) | AC50 [1] | AC50 (Acetylcholinesterase) | AC50 [2] | AC50 (Cannabinoid receptor 1) | AC50 [3] | AC50 [4] | AC50 (Progesterone receptor) | AC50 [5]
18 | O=C(c1ccccc1)c1ccc2n1CCC2C(=O)O (configuration not stated) [KETOROLAC] |  |  | > 10 µM |  | > 30 µM | > 30 µM | > 10 µM | > 30 µM
19 | C[C@H](Cn1cnc2c(N)ncnc21)OCP(=O)(O)O [TENOFOVIR ANHYDROUS] |  |  | > 30 µM |  | > 30 µM | > 30 µM | > 30 µM | > 30 µM
20 | O=C(Cc1cccs1)N[C@@H]1C(=O)N2C(C(=O)[O-])=C(C[n+]3ccccc3)CS[C@H]12 [CEPHALORIDINE] | > 30 µM | > 30 µM |  | > 30 µM | > 30 µM | > 30 µM |  | > 30 µM
21 | OCCOCCN1CCN(C(c2ccccc2)c2ccc(Cl)cc2)CC1 (configuration not stated) [HYDROXYZINE] |  |  | > 30 µM | > 30 µM | > 10 µM | > 10 µM |  | 9.67 µM
22 | C[C@H](CCC(=O)O)[C@H]1CC[C@H]2[C@@H]3[C@H](O)C[C@@H]4C[C@H](O)CC[C@]4(C)[C@H]3CC[C@]12C [CHENODIOL] |  |  |  | > 30 µM |  | > 30 µM |  | 19 µM
23 | NCCCNCCSP(=O)(O)O [AMIFOSTINE] |  |  | > 30 µM | > 30 µM | > 30 µM | > 30 µM |  | 
24 | CCCCCCCCCCCCCCCC(=O)OC[C@H](COP(=O)([O-])OCC[N+](C)(C)C)OC(=O)CCCCCCCCCCCCCCC [COLFOSCERIL PALMITATE] | > 30 µM | > 30 µM |  |  |  |  |  | 
25 | C[C@]12CCC(=O)C=C1CC[C@H]1[C@@H]3CC[C@](O)(C(=O)CO)[C@@]3(C)C[C@H](O)[C@@]12F [FLUDROCORTISONE] |  |  | > 30 µM | > 30 µM | > 10 µM | > 30 µM |  | > 30 µM
26 | CC[N+](CC)(CCNC(=O)C(=O)NCC[N+](CC)(CC)Cc1ccccc1Cl)Cc1ccccc1Cl [AMBENONIUM] |  |  | > 30 µM | > 30 µM | > 30 µM | > 30 µM | > 30 µM | 
27 | CC(C)C[C@H](NC(=O)[C@H](Cc1ccccc1)NC(=O)c1cnccn1)B(O)O [BORTEZOMIB] |  |  | > 30 µM |  | > 30 µM | > 30 µM | > 30 µM | 
28 | CCCCCCCC/C=C\CCCCCCCC(=O)O [OLEIC ACID] | > 30 µM | > 30 µM |  |  |  |  |  | 
29 | O=C(O)[C@@H](S)[C@@H](S)C(=O)O | > 30 µM | > 30 µM |  |  |  |  |  | 
30 | CCOc1ccccc1OCCN[C@H](C)Cc1ccc(OC)c(S(N)(=O)=O)c1 [TAMSULOSIN] |  |  | > 30 µM |  | > 10 µM | > 10 µM |  | 
31 | C[C@H](CS)C(=O)N1CCC[C@H]1C(=O)O [CAPTOPRIL] |  |  | > 30 µM |  | > 10 µM | > 10 µM |  | > 30 µM
32 | C=CC1=C(C(=O)O)N2C(=O)[C@@H](NC(=O)/C(=N\O)c3csc(N)n3)[C@H]2SC1 |  |  | > 30 µM | > 30 µM | > 10 µM | > 10 µM |  | > 30 µM
33 | CCC1(c2ccccc2)C(=O)NCNC1=O [PRIMIDONE] |  |  | > 10 µM |  |  | > 10 µM | > 10 µM | 
34 | Nc1nnc(-c2cccc(Cl)c2Cl)c(N)n1 [LAMOTRIGINE] |  |  | > 30 µM |  | > 10 µM | > 10 µM |  | > 30 µM
